# Columns and labels:
# [1] = biological target: T1, BCL6 (Homo sapiens, UniProt P41182); test: BCL6 degradation immunoblot in VAL cells; type: cell-based
# T1 construct: endogenous in cells; host or cells: VAL cells
# Method: (§1) Inclusive of Examples 8-14, VAL cells were seeded in 6-well plates at 1×10^6 cells/well and treated with indicated concentration and time point for the indicated compounds. Total protein was extracted from cells using the RIPA buffer (Abcam) supplemented with the Halt Protease Inhibitor Cocktail (Millipore-Sigma). Samples were loaded to Invitrogen Bolt Bis -Tris Plus gels (ThermoFisher Scientific) and transferred to Invitrolon PVDF membranes (ThermoFisher Scientific) using the Invitrogen Bolt wet-gel Transfer Device. Immunodetection was performed with standard techniques. The following primary and secondary antibodies were used: anti-BCL6, β-actin, H3 (Cell Signaling Technology), and IRDye secondary antibodies at the concentration recommended by the manufacturer.
# VAL cells were treated with compounds at serial concentrations of 0.1 μM, 1.0 μM, and 10 μM for 4 hours.
# VAL cells were treated with 1 at serial concentrations of 0.001 μM, 0.010 μM, 0.100 μM, 1.0 μM, and 10 μM for 4 hours.
# VAL cells were treated with 5 at serial concentrations of 0.001 μM, 0.010 μM, 0.100 μM, 1.0 μM, and 10 μM for 4 hours.
# VAL cells were treated with 1 at 0.1 μM for 1, 2, 4, 8, and 24 hours.
# VAL cells were treated with 6 at serial concentrations of 0.1 μM, 0.3 μM, 1.0 μM, 3.0 μM and 10 μM for 4 hours.
# [2] = biological target: T1, BCL6; test: BCL6 degradation immunoblot in DB cells; type: cell-based; details: tested at 0.1, 1.0, 10 μM for 4 hours, compared to BI-3812 and BI-3802
# Method: as §1
# DB cells were treated with compounds at serial concentrations of 0.1 μM, 1.0 μM, and 10 μM for 4 hours.
# [3] = tested at 0.1, 1.0, 10 μM for 4 hours, compared to BI-3812 and BI-3802
# [4] = tested at 0.001, 0.010, 0.100, 1.0, 10 μM for 4 hours
SMILES,"concentration at which compound degrades BCL6 (immunoblot) ([1]; tested at 0.1, 0.3, 1.0, 3.0, 10 μM for 4 hours) [nM]","concentration at which compound degrades BCL6 (immunoblot) [1, 3] [nM]",concentration at which compound degrades BCL6 (immunoblot) [2] [nM],"time in which BCL6 is degraded (immunoblot) ([1]; 0.1 μM (100 nM), time points 1, 2, 4, 8, 24 hours)","concentration at which compound degrades BCL6 (immunoblot) [1, 4] [nM]"
"CNC(=O)COc1cc2cc(Nc3nc(N4CCC(C(=O)NCCCCNc5cccc6c5C(=O)N(C5CCC(=O)NC5=O)C6=O)CC4)ncc3Cl)cc(OC)c2n(C)c1=O (centres unmarked) [compound 3, 1-(5-chloro-4-((8-methoxy-1-methyl-3-(2-(methylamino)-2-oxoethoxy)-2-oxo-1,2-dihydroquinolin-6-yl)amino)pyrimidin-2-v1)-N-(4-((2-(2,6-dioxopiperidin-3-yl)-1,3-dioxoisoindolin-4-yl)amino)butyl)piperidine-4-carboxamide]",–,100,100,–,–
"CNC(=O)COc1cc2cc(Nc3nc(N4CCC(C(=O)NCCCCCCCCNc5cccc6c5C(=O)N(C5CCC(=O)NC5=O)C6=O)CC4)ncc3Cl)cc(OC)c2n(C)c1=O (centres unmarked) [compound 1, 1-(5-chloro-4-((8-methoxy-1-methyl-3-(2-(methylamino)-2-oxoethoxy)-2-oxo-1,2-dihydroquinolin-6-yl)amino)pyrimidin-2-yl)-N-(8-((2-(2,6-dioxopiperidin-3-yl)-1,3-dioxoisoindolin-4-yl)amino)octyl)piperidine-4-carboxamide]",–,100,–,less than 1 hour,1.0

# Second part, the compound after the results:
"concentration at which compound degrades BCL6 (immunoblot) ([1]; tested at 0.1, 0.3, 1.0, 3.0, 10 μM for 4 hours) [nM]","concentration at which compound degrades BCL6 (immunoblot) [1, 3] [nM]",concentration at which compound degrades BCL6 (immunoblot) [2] [nM],"time in which BCL6 is degraded (immunoblot) ([1]; 0.1 μM (100 nM), time points 1, 2, 4, 8, 24 hours)","concentration at which compound degrades BCL6 (immunoblot) [1, 4] [nM]",SMILES
300,–,–,–,–,"CNC(=O)COc1cc2cc(Nc3nc(N4CCC(C(=O)NCCCCCCNC(=O)COc5cccc6c5C(=O)N(C5CCC(=O)NC5=O)C6=O)CC4)ncc3Cl)cc(OC)c2n(C)c1=O (centres unmarked) [compound 6, 1-(5-chloro-4-((8-methoxy-1-methyl-3-(2-(methylamino)-2-oxoethoxy)-2-oxo-1,2-dihydroquinolin-6-yl)amino)pyrimidin-2-vl)-N-(6-(2-((2-(2,6-dioxopiperidin-3-yl)-1,3-dioxoisoindolin-4-yl)oxy)acetamido)hexyl)piperidine-4-carboxamide]"
–,100,1000,–,–,"CNC(=O)COc1cc2cc(Nc3nc(N4CCC(C(=O)NCCOCCNc5cccc6c5C(=O)N(C5CCC(=O)NC5=O)C6=O)CC4)ncc3Cl)cc(OC)c2n(C)c1=O (centres unmarked) [compound 4, 1-(5-chloro-4-((8-methoxy-1-methyl-3-(2-(methylamino)-2-oxoethoxy)-2-oxo-1,2-dihydroquinolin-6-yl)amino)pyrimidin-2-vl)-N-(2-(2-((2-(2,6-dioxopiperidin-3-yl)-1,3-dioxoisoindolin-4-yl)amino)ethoxy)ethyl)piperidine-4-carboxamide]"
–,100,1000,–,10,"CNC(=O)COc1cc2cc(Nc3nc(N4CCC(NC(=O)CCCCCCCCCCCNc5cccc6c5C(=O)N(C5CCC(=O)NC5=O)C6=O)CC4)ncc3Cl)cc(OC)c2n(C)c1=O (centres unmarked) [compound 5, N-(1-(5-chloro-4-((8-methoxy-1-methyl-3-(2-(methylamino)-2-oxoethoxy)-2-oxo-1,2-dihydroquinolin-6-yl)amino)pyrimidin-2-yl)piperidin-4-yl)-12-((2-(2,6-dioxopiperidin-3-yl)-1,3-dioxoisoindolin-4-yl)amino)dodecanamide]"
